Columns and labels:
human recombinant HDAC6 = molecular target: T1, human recombinant HDAC6 (Homo sapiens, UniProt Q9UBN7); assay: HDAC6 enzyme activity inhibition assay (HDAC Fluorimetric Drug Discovery Kit); type: biochemical; settings: for HDAC6 selectivity (fold): HDAC6 over HDAC1; for IC50: human recombinant HDAC6, same protocol as HDAC1, read-out: HDAC6
T1 construct: purchased Calbiochem 382180
T1 sequence (Q9UBN7 1-1215): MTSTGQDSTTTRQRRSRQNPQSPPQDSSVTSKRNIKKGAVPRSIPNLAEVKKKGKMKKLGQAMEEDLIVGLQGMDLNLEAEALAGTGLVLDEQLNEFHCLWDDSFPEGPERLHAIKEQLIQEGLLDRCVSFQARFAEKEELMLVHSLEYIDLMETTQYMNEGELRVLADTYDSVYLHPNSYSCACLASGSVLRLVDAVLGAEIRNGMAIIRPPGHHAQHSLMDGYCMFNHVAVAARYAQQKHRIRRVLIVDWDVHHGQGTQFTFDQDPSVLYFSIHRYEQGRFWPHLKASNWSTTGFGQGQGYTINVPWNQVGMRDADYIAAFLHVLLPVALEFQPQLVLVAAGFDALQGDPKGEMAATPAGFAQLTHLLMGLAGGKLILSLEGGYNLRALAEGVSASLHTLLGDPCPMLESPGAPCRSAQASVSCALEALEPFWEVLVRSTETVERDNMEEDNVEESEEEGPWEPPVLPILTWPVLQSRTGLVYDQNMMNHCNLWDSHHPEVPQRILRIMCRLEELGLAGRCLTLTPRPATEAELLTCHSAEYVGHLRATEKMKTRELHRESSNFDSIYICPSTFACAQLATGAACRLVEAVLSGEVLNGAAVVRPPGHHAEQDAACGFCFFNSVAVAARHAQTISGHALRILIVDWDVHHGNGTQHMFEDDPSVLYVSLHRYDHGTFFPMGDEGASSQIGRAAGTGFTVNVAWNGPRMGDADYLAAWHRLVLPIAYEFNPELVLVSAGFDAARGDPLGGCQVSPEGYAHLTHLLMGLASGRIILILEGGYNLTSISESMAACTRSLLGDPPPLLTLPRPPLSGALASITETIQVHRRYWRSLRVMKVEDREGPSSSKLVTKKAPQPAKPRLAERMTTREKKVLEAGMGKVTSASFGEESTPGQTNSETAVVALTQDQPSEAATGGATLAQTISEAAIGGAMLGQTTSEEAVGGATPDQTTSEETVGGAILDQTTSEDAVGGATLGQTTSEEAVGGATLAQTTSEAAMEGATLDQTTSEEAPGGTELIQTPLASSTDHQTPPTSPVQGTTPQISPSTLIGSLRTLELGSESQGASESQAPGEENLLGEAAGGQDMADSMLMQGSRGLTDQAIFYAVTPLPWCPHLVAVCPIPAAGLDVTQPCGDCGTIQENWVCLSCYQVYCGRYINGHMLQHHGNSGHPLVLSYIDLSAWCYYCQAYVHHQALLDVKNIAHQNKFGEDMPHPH
Summary of the method: (§1)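 Human recombinant HDAC1 or HDAC6 (0.3 μg) reacted with 10 μM Fluor de Lys-SIRT1 substrate and 5-fold compound dilutions for 60 min at 30 °C. Developer II added for 30 min, fluorescence read at Ex 360/Em 460; IC50 calculated from the readings.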

human recombinant HDAC1 = molecular target: T2, human recombinant HDAC1 (Homo sapiens, UniProt Q13547); assay: HDAC1 enzyme activity inhibition assay (HDAC Fluorimetric Drug Discovery Kit); type: biochemical; settings: human recombinant HDAC1, Fluor de Lys substrate 10 μM, 30° C. 60 minutes
T2 construct: purchased Enzo Life Science BML-SE456
T2 sequence (Q13547 whole entry): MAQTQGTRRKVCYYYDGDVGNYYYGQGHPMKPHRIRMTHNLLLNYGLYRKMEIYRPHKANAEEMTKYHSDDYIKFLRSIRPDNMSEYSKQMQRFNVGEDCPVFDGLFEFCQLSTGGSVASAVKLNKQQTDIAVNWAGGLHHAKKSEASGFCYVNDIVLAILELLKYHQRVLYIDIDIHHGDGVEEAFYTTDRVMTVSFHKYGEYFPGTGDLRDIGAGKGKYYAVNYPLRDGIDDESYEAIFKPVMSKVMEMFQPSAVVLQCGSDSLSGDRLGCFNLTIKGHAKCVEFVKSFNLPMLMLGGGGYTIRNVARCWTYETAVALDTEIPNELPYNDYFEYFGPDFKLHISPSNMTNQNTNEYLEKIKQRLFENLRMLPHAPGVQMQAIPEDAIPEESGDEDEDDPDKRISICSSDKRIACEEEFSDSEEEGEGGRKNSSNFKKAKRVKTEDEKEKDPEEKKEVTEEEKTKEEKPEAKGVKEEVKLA
Summary of the method: as §1

SMILES | HDAC6 selectivity (fold) (human recombinant HDAC6) | IC50 (human recombinant HDAC6) [µM] | IC50 (human recombinant HDAC1) [µM]
O=C(N1CCOCC1)N(Cc1ccc(-c2nnc(C(F)F)o2)cc1F)c1cccc(Cl)c1 [Compound 21853, N-(3-chlorophenyl)-N-(4-(5-(difluoromethyl)-1,3,4-oxadiazol-2-yl)-2-fluorobenzyl)morpholine-4-carboxamide] | 540 | 0.053 | 28.8
O=C(N1CCOCC1)N(Cc1ccc(-c2nnc(C(F)(F)F)o2)cc1F)c1cccc(Cl)c1 [Compound 21854, N-(3-chlorophenyl)-N-(2-fluoro-4-(5-(trifluoromethyl)-1,3,4-oxadiazol-2-yl)benzyl)morpholine-4-carboxamide] | 46 | 0.276 | 12.7
O=C(N1CCOCC1)N(Cc1ccc(-c2nnc(C(F)(F)F)o2)cn1)c1ccc(F)cc1F [Compound 21857, N-(2,4-difluorophenyl)-N-((5-(5-(trifluoromethyl)-1,3,4-oxadiazol-2-yl)pyridin-2-yl)methyl)morpholine-4-carboxamide] | 182 | 0.131 | 23.9
O=C(N1CCOCC1)N(Cc1ccc(-c2nnc(C(F)F)o2)cc1F)c1ccc(F)cc1F [Compound 21858, N-(4-(5-(difluoromethyl)-1,3,4-oxadiazol-2-yl)-2-fluorobenzyl)-N-(2,4-difluorophenyl)morpholine-4-carboxamide] | 966 | 0.038 | 37.1
O=C(N1CCOCC1)N(Cc1ccc(-c2nnc(C(F)(F)F)o2)cc1F)c1ccc(F)cc1F [Compound 21859, N-(2,4-difluorophenyl)-N-(2-fluoro-4-(5-(trifluoromethyl)-1,3,4-oxadiazol-2-yl)benzyl)morpholine-4-carboxamide] | 177 | 0.133 | 23.5
CCN1CCN(C(=O)N(Cc2ccc(-c3nnc(C(F)(F)F)o3)cc2)c2cccc(Cl)c2)CC1 [Compound 21860, N-(3-Chlorophenyl)-4-ethyl-N-(4-(5-(trifluoromethyl)-1,3,4-oxadiazol-2-yl)benzyl)piperazine-1-carboxamide] | 82 | 0.22 | 18
CCN1CCN(C(=O)N(Cc2ccc(-c3nnc(C(F)(F)F)o3)cc2F)c2cccc(Cl)c2)CC1 [Compound 21861, N-(3-Chlorophenyl)-4-ethyl-N-(2-fluoro-4-(5-(trifluoromethyl)-1,3,4-oxadiazol-2-yl)benzyl)piperazine-1-carboxamide] | 40 | 0.343 | 13.7
CCN1CCN(C(=O)N(Cc2ccc(-c3nnc(C(F)(F)F)o3)cc2)c2ccc(Cl)cc2)CC1 [Compound 21862, N-(4-Chlorophenyl)-4-ethyl-N-(4-(5-(trifluoromethyl)-1,3,4-oxadiazol-2-yl)benzyl)piperazine-1-carboxamide] | 71 | 0.472 | 33.7
CCN1CCN(C(=O)N(Cc2ccc(-c3nnc(C(F)(F)F)o3)cc2F)c2ccc(Cl)cc2)CC1 [Compound 21863, N-(4-Chlorophenyl)-4-ethyl-N-(2-fluoro-4-(5-(trifluoromethyl)-1,3,4-oxadiazol-2-yl)benzyl)piperazine-1-carboxamide] | 65 | 0.4 | 25.8
CCN1CCN(C(=O)N(Cc2ccc(-c3nnc(C(F)(F)F)o3)cn2)c2ccc(Cl)cc2)CC1 [Compound 21864, N-(4-Chlorophenyl)-4-ethyl-N-((5-(5-(trifluoromethyl)-1,3,4-oxadiazol-2-yl)pyridin-2-yl)methyl)piperazine-1-carboxamide] | 190 | 0.152 | 28.8
CCN1CCN(C(=O)N(Cc2ccc(-c3nnc(C(F)(F)F)o3)cc2)c2cccc(F)c2)CC1 [Compound 21865, 4-Ethyl-N-(3-fluorophenyl)-N-(4-(5-(trifluoromethyl)-1,3,4-oxadiazol-2-yl)benzyl)piperazine-1-carboxamide] | 174 | 0.096 | 16.8
CCN1CCN(C(=O)N(Cc2ccc(-c3nnc(C(F)(F)F)o3)cc2F)c2cccc(F)c2)CC1 [Compound 21866, 4-Ethyl-N-(2-fluoro-4-(5-(trifluoromethyl)-1,3,4-oxadiazol-2-yl)benzyl)-N-(3-fluorophenyl)piperazine-1-carboxamide] | 174 | 0.137 | 23.9
CCN1CCN(C(=O)N(Cc2ccc(-c3nnc(C(F)(F)F)o3)cn2)c2cccc(F)c2)CC1 [Compound 21867, 4-Ethyl-N-(3-fluorophenyl)-N-((5-(5-(trifluoromethyl)-1,3,4-oxadiazol-2-yl)pyridin-2-yl)methyl)piperazine-1-carboxamide] | 489 | 0.073 | 35.9
CCN1CCN(C(=O)N(Cc2ccc(-c3nnc(C(F)(F)F)o3)cc2)c2ccc(F)cc2)CC1 [Compound 21868, 4-Ethyl-N-(4-fluorophenyl)-N-(4-(5-(trifluoromethyl)-1,3,4-oxadiazol-2-yl)benzyl)piperazine-1-carboxamide] | 172 | 0.16 | 27.5
CCN1CCN(C(=O)N(Cc2ccc(-c3nnc(C(F)(F)F)o3)cc2F)c2ccc(F)cc2)CC1 [Compound 21869, 4-Ethyl-N-(2-fluoro-4-(5-(trifluoromethyl)-1,3,4-oxadiazol-2-yl)benzyl)-N-(4-fluorophenyl)piperazine-1-carboxamide] | 137 | 0.138 | 18.9
CCN1CCN(C(=O)N(Cc2ccc(-c3nnc(C(F)(F)F)o3)cn2)c2ccc(F)cc2)CC1 [Compound 21870, 4-Ethyl-N-(4-fluorophenyl)-N-((5-(5-(trifluoromethyl)-1,3,4-oxadiazol-2-yl)pyridin-2-yl)methyl)piperazine-1-carboxamide] | 400 | 0.113 | 45.1
CCN1CCN(C(=O)N(Cc2ccc(-c3nnc(C(F)(F)F)o3)cc2)c2cccc(OC)c2)CC1 [Compound 21871, 4-Ethyl-N-(3-methoxyphenyl)-N-(4-(5-(trifluoromethyl)-1,3,4-oxadiazol-2-yl)benzyl)piperazine-1-carboxamide] | 28 | 0.321 | 9.13
CCN1CCN(C(=O)N(Cc2ccc(-c3nnc(C(F)(F)F)o3)cc2F)c2cccc(OC)c2)CC1 [Compound 21872, 4-Ethyl-N-(2-fluoro-4-(5-(trifluoromethyl)-1,3,4-oxadiazol-2-yl)benzyl)-N-(3-methoxyphenyl)piperazine-1-carboxamide] | 38 | 0.249 | 9.43
CCN1CCN(C(=O)N(Cc2ccc(-c3nnc(C(F)(F)F)o3)cn2)c2cccc(OC)c2)CC1 [Compound 21873, 4-Ethyl-N-(3-methoxyphenyl)-N-((5-(5-(trifluoromethyl)-1,3,4-oxadiazol-2-yl)pyridin-2-yl)methyl)piperazine-1-carboxamide] | 55 | 0.269 | 14.9
CCN1CCN(C(=O)N(Cc2ccc(-c3nnc(C(F)(F)F)o3)cc2)c2ccc(OC)cc2)CC1 [Compound 21874, 4-Ethyl-N-(4-methoxyphenyl)-N-(4-(5-(trifluoromethyl)-1,3,4-oxadiazol-2-yl)benzyl)piperazine-1-carboxamide] | 20 | 0.308 | 6.17
CCN1CCN(C(=O)N(Cc2ccc(-c3nnc(C(F)(F)F)o3)cc2F)c2ccc(OC)cc2)CC1 [Compound 21875, 4-Ethyl-N-(2-fluoro-4-(5-(trifluoromethyl)-1,3,4-oxadiazol-2-yl)benzyl)-N-(4-methoxyphenyl)piperazine-1-carboxamide] | 23 | 0.386 | 9
